In patent US8410161B2, “Thioxanthone ring system derivatives” (National Defense Medical Center, priority 2010, dated 2013):

Assays:
Format in all cases: cell-based
A3 cell lines = test: MTT assay, A3 cell lines (lung cancer stem cell)
Excerpt: Please to FIG. 4B, various cell viabilities of the A3 cell lines can be obtained through the MTT assay and illustrated in FIG. 4B while the compounds No. 1˜30 are used to treat A3 cell lines, wherein A3 cell lines are lung cancer stem cell.

[1] = MTT assay, HEL299 fibroblast; conditions: human
Excerpt: Please refer to FIG. 4C, various cell viabilities of the HEL299 cell lines can be obtained through the MTT assay while the compounds No. 1˜30 are used to treat HEL299 cell lines, wherein HEL299 cell lines are fibroblast.

A control cell lines = test: MTT assay, A control cell lines (lung cancer cell)
Excerpt: Please refer to Table 1 and FIGS. 4A-4C. According to a MTT assay (Table 1), various cell viabilities of the A control cell lines can be obtained and illustrated in FIG. 4A while the compounds No. 2˜30 are used to treat A control cell lines, wherein A control cell lines are lung cancer cell.

SMILES | cell viabilities of A3 cell lines (MTT assay) (A3 cell lines) | viability [1] | cell viabilities of A control cell lines (MTT assay) (A control cell lines)
O=c1c2ccccc2sc2c(Cl)c(Cl)ccc12 [No. 1, 3,4-dichloro-9H-thioxanthen-9-one] | 83.7 ± 6.22% | 68.5 ± 12% | 
CCSc1ccc2c(=O)c3ccccc3sc2c1Cl [No. 2, 4-Chloro-3-(ethylthio)-9H-thioxanthen-9-one] | 72.7 ± 2.60% | 34 ± 7.95% | 85.1 ± 2.74%
O=c1c2ccccc2sc2c(Cl)c(SC3CCCC3)ccc12 [No. 5, 4-Chloro-3-(cyclopentylthio)-9H-thioxanthen-9-one] | 107 ± 7.17% | 89.5 ± 13.7% | 108 ± 7.69%
Cc1ccccc1Sc1ccc2c(=O)c3ccccc3sc2c1Cl [No. 7, 4-Chloro-3-(o-tolylthio)-9H-thioxanthen-9-one] | 81.6 ± 4.98% | 91.1 ± 18.7% | 103 ± 2.86%
Cc1cccc(Sc2ccc3c(=O)c4ccccc4sc3c2Cl)c1 [No. 8, 4-Chloro-3-(m-tolylthio)-9H-thioxanthen-9-one] | 116 ± 1.49% | 74.8 ± 4.04% | 120 ± 1.51%
Cc1ccc(Sc2ccc3c(=O)c4ccccc4sc3c2Cl)cc1 [No. 9, 4-Chloro-3-(p-tolylthio)-9H-thioxanthen-9-one] | 115 ± 4.55% | 98.4 ± 12.8% | 119 ± 4.69%
Cc1ccc(C)c(Sc2ccc3c(=O)c4ccccc4sc3c2Cl)c1 [No. 11, 4-Chloro-3-(2,5-dimethylphenylthio)-9H-thioxanthen-9-one] | 96.9 ± 5.20% | 94.4 ± 10.1% | 105 ± 2.56%
Cc1ccc(Sc2ccc3c(=O)c4ccccc4sc3c2Cl)cc1C [No. 13, 4-Chloro-3-(3,4-dimethylphenylthio)-9H-thioxanthen-9-one] | 112 ± 1.86% | 112 ± 11.2% | 113 ± 5.86%
COc1ccccc1Sc1ccc2c(=O)c3ccccc3sc2c1Cl [No. 15, 4-Chloro-3-(2-methoxylphenylthio)-9H-thioxanthen-9-one] | 99.0 ± 3.41% | 73 ± 12.3% | 85.4 ± 9.66%
COc1ccc(Sc2ccc3c(=O)c4ccccc4sc3c2Cl)cc1 [No. 17, 4-Chloro-3-(4-methoxylphenylthio)-9H-thioxanthen-9-one] | 89.4 ± 1.88% | 109 ± 14.5% | 97.1 ± 8.74%
CCc1ccccc1Sc1ccc2c(=O)c3ccccc3sc2c1Cl [No. 18, 4-Chloro-3-(2-ethylphenylthio)-9H-thioxanthen-9-one] | 77.2 ± 5.23% | 104 ± 14.2% | 73.2 ± 10.2%
CCOc1cccc(Sc2ccc3c(=O)c4ccccc4sc3c2Cl)c1 [No. 19, 4-Chloro-3-(3-ethoxylphenylthio)-9H-thioxanthen-9-one] | 98.2 ± 4.79% | 90.3 ± 14.4% | 91.3 ± 1.74%
CC(C)c1ccc(Sc2ccc3c(=O)c4ccccc4sc3c2Cl)cc1 [No. 20, 4-Chloro-3-(4-isopropylphenylthio)-9H-thioxanthen-9-one] | 93.9 ± 6.97% | 110 ± 14.3% | 74.6 ± 11.2%
CC(C)c1ccccc1Sc1ccc2c(=O)c3ccccc3sc2c1Cl [No. 21, 4-Chloro-3-(2-isopropylphenylthio)-9H-thioxanthen-9-one] | 93.7 ± 6.01% | 107 ± 5.4% | 83.5 ± 12.6%
O=c1c2ccccc2sc2c(Cl)c(Sc3ccc(Br)cc3)ccc12 [No. 22, 3-(4-Bromophenylthio)-4-chloro-9H-thioxanthen-9-one] | 70.8 ± 3.86% | 66.1 ± 0.66% | 104 ± 1.89%
O=c1c2ccccc2sc2c(Cl)c(Sc3cccc(Cl)c3)ccc12 [No. 30, 4-Chloro-3-(3-chlorophenylthio)-9H-thioxanthen-9-one] | 92.2 ± 6.17% | 101 ± 3.7% | 97.7 ± 1.46%
